Data published in US20190094246A1, “DETECTION OF NEURODEGENERATIVE DISEASES” (AMONETA DIAGNOSTICS SAS, priority 2016, published 2019).

Columns and labels:
[1] = system: red blood cells (RBCs) from human subjects; assay: Dose-dependent staining of RBCs, flow cytometry (MEDFI); assay type: cell-based; conditions: 0.03, 0.1, 0.3, 1 and 3 μM; RBCs 200 000 cells/mL of 3 human subjects; channel FL1 (Ex. 1), FL3 (Ex. 9)
Protocol: The blood from an animal or a human subject is sampled in specific 5 mL tube, such as lithium-heparin tube. The blood is manually mixed by inversion before use.
Red blood cells (RBCs) are obtained from whole blood after centrifugation at 200 g for 10 minutes at room temperature. RBCs pellet down and segregate from white blood cells, platelets and plasma. 5 μL of RBCs are pipetted, diluted 1000 times in 5 mL of Flow cytometry buffer (FACS buffer: 150 mM of NaCl; 1 mM of D-Glucose; 5 mM of Na2HPO4; 0.5 mM CaCl2) and either numbered by manual counting on disposable Malassez-like counting cell (X100 Cellule Fast Read, Fisher Scientific, Ref #11762712) with a microscope or counted with Flow count Fluorospheres (Beckman, Ref 7547053) so as to obtain a cell concentration of stock solution to be used in the test. […]
From these different concentration stocks, the same quantity (4) of compounds at desired concentration to be tested is added to erythrocytes in each FACS vial to obtain the same % of DMSO (0.5% of DMSO) at the end. […] In all experiments, a control is performed with the final amount of compound solvent (DMSO alone, without test compound), in order to obtain the auto-fluorescence of the RBCs.
These fluorescences are detected by the gating of erythrocytes in a log FSC/log SSC plot. […]

[2] = system: RBCs from transgenic APP/PS1 mice versus age-matched Wild-Type mice; assay: RBC staining in Alzheimer animal model, transgenic versus wild type; assay type: cell-based
Description: Transgenic mice used in this study carry two mutations associated with early onset AD: mutant amyloid precursor protein (K670N and M671L) and mutant human presenilin 1 (M146V). These transgenic mice develop AD-related phenotype consisting in beta-amyloid peptide overproduction and formation of amyloid plaques in their brain.

COCCOCC#CB(C#CCOCCOC)n1c(C)cc(C)c1/C(=C1\N=C(C)C=C1C)c1ccc(C(=O)NCCCn2cc(C3=C(c4cn(C)c5ccccc45)C(=O)NC3=O)c3ccccc32)cc1 [Ex. 9]
staining of RBCs (index MEDFI) [1]: dose-dependent staining | discrimination between transgenic and wild type mice by RBC staining ([2]; 1 μM, 5 transgenic mice and 6 age-matched wild type mice): excellent accuracy | discrimination between the transgenic mouse group and control mouse group by RBC staining ([2]; concentration not given): good accuracy
